Experimental data from ChEMBL document CHEMBL4033645, “Design, synthesis, and docking studies of quinazoline analogues bearing aryl semicarbazone scaffolds as potent EGFR inhibitors” (Bioorg Med Chem, 2017).

How the values were obtained:
A549 [1] = assay: Cytotoxicity against human A549 cells assessed as decrease in cell viability after 72 hrs by MTT assay; type: functional, cell-based; conditions: A549, 72 h
PC-3 = assay: Cytotoxicity against human PC3 cells assessed as decrease in cell viability after 72 hrs by MTT assay; type: functional, cell-based
HepG2 [2] = assay: Cytotoxicity against human HepG2 cells assessed as decrease in cell viability after 72 hrs by MTT assay; type: functional, cell-based
MCF7 [3] = assay: Cytotoxicity against human MCF7 cells assessed as decrease in cell viability after 72 hrs by MTT assay; type: functional, cell-based
A549 [4] = assay: Induction of apoptosis in human A549 cells assessed as late apoptotic cells at 0.5 uM after 48 hrs by Annexin V-FITC/propidium iodide-staining based by flow cytometric analysis (reference value: 2.69%); type: functional
A549 [5] = assay: Induction of apoptosis in human A549 cells assessed as necrotic cells at 1 uM after 48 hrs by Annexin V-FITC/propidium iodide-staining based by flow cytometric analysis (reference value: 0.64%); type: functional
A549 [6] = assay: Induction of apoptosis in human A549 cells after 48 hrs by Annexin V-FITC/propidium iodide-staining based by flow cytometric analysis; type: functional, cell-based
MCF7 [7] = assay: Potency index, ratio of afatinib IC50 to compound IC50 for human MCF7 cells; type: functional
HepG2 [8] = assay: Potency index, ratio of afatinib IC50 to compound IC50 for human HepG2 cells; type: functional
A549 [9] = assay: Induction of apoptosis in human A549 cells assessed as necrotic cells at 0.5 uM after 48 hrs by Annexin V-FITC/propidium iodide-staining based by flow cytometric analysis (reference value: 0.64%); type: functional
A549 [10] = assay: Induction of apoptosis in human A549 cells assessed as late apoptotic cells at 1 uM after 48 hrs by Annexin V-FITC/propidium iodide-staining based by flow cytometric analysis (reference value: 2.69%); type: functional
[11] = molecular target: Epidermal growth factor receptor (Homo sapiens, UniProt P00533); assay: Inhibition of EGFR (unknown origin) using FAM-labeled peptide as substrate measured after 10 mins by mobility shift assay
A549 [12] = assay: Induction of apoptosis in human A549 cells assessed as viable cells at 0.5 uM after 48 hrs by Annexin V-FITC/propidium iodide-staining based by flow cytometric analysis (reference value: 93.27%); type: functional; conditions: A549, 48 h, read-out: Activity
A549 [13] = assay: Induction of apoptosis in human A549 cells assessed as early apoptotic cells at 1 uM after 48 hrs by Annexin V-FITC/propidium iodide-staining based by flow cytometric analysis (reference value: 3.40%); type: functional
A549 [14] = assay: Induction of apoptosis in human A549 cells assessed as viable cells at 1 uM after 48 hrs by Annexin V-FITC/propidium iodide-staining based by flow cytometric analysis (reference value: 93.27%); type: functional; conditions: A549, 48 h, read-out: Activity
A549 [15] = assay: Induction of apoptosis in human A549 cells assessed as early apoptotic cells at 0.5 uM after 48 hrs by Annexin V-FITC/propidium iodide-staining based by flow cytometric analysis (reference value: 3.40%); type: functional
[16] = Homo sapiens, PC-3, 72 h, read-out: IC50
[17] = Homo sapiens, HepG2, 72 h, read-out: IC50
[18] = Homo sapiens, MCF7, 72 h, read-out: IC50

Epidermal growth factor receptor, sequence (P00533 whole entry): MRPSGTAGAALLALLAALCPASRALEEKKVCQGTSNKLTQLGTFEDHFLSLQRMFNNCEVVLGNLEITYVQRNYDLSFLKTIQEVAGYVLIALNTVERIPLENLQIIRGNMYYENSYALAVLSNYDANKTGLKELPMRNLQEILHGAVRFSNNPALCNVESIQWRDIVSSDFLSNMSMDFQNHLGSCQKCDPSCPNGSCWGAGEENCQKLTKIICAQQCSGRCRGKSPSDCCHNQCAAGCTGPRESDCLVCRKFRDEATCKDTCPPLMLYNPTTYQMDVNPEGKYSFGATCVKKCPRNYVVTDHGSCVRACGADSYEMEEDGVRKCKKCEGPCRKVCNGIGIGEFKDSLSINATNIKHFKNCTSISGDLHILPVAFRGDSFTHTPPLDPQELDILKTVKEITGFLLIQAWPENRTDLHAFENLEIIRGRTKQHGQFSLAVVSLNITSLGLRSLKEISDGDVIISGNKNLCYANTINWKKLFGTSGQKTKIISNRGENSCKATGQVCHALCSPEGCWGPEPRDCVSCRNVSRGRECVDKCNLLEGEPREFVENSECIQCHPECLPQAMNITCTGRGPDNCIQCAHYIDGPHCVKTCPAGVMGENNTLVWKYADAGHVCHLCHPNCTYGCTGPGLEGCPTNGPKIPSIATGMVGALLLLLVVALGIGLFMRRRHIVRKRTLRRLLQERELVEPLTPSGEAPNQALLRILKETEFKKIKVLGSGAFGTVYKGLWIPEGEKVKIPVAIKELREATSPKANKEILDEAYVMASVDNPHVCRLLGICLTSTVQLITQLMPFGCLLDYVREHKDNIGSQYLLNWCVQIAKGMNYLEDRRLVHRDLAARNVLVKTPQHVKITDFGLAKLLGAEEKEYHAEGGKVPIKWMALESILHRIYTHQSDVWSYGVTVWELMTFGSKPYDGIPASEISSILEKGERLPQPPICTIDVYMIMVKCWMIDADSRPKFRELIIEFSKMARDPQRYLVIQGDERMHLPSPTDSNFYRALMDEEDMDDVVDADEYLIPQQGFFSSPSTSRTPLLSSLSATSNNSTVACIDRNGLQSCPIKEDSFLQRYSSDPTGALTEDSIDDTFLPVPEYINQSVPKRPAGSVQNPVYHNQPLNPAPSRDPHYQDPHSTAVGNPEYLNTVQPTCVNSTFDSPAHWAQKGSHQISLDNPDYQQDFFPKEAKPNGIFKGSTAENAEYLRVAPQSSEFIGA

SMILES | IC50 (A549 [1]) [µM] | IC50 (PC-3; [16]) [µM] | IC50 (HepG2 [2]; [17]) [µM] | IC50 (MCF7 [3]; [18]) [µM] | other results
CCN(CC)c1ccc(/C=N/NC(=O)Nc2cc3c(Nc4ccc(F)c(Cl)c4)ncnc3cc2OC)c(O)c1 | 27.3 | 34.3 | 29.3 | 27.3 | 
COc1cc2ncnc(Nc3ccc(F)c(Cl)c3)c2cc1NC(=O)N/N=C/c1ccc(O)cc1O | 31.4 | 29.5 | 32.1 | 36.2 | 
CC(C)(C)c1cc(/C=N/NC(=O)Nc2cc3c(Nc4ccc(F)c(Cl)c4)ncnc3cc2O[C@H]2CCOC2)cc(C(C)(C)C)c1O | 18.9 | 13.1 | 12.5 | 14.5 | 
CCN(CC)c1ccc(/C=N/NC(=O)Nc2cc3c(Nc4ccc(F)c(Cl)c4)ncnc3cc2O[C@H]2CCOC2)c(O)c1 | 15.7 | 4.59 | 15.7 | 15.6 | 
O=C(N/N=C/c1ccc(O)cc1O)Nc1cc2c(Nc3ccc(F)c(Cl)c3)ncnc2cc1O[C@H]1CCOC1 | 9.36 | 7.54 | 4.53 | 5.35 | 
O=C(N/N=C/c1ccc(O)cc1)Nc1cc2c(Nc3ccc(F)c(Cl)c3)ncnc2cc1O[C@H]1CCOC1 | 1.32 | 4.89 | 0.07 | 0.91 | Activity (A549 [4]): 6.94%; Activity (A549 [5]): 4.37%; Activity (A549 [6]): Dose-dependent effect; Ratio IC50 (MCF7 [7]): 2.9; Ratio IC50 (HepG2 [8]): 19; Activity (A549 [9]): 2.37%; Activity (A549 [10]): 8.94%; IC50 [11]: 0.056 µM; viability at 0.5 µM (A549 [12]): 83.9%; Activity (A549 [13]): 8.81%; viability at 1 µM (A549 [14]): 77.9%; Activity (A549 [15]): 6.81%
COc1ccc(/C=N/NC(=O)Nc2cc3c(Nc4ccc(F)c(Cl)c4)ncnc3cc2OC)cc1 | 28.1 | 16.5 | 21.3 | 8.14 | 
COc1cc2ncnc(Nc3ccc(F)c(Cl)c3)c2cc1NC(=O)N/N=C/c1cccc(Cl)c1Cl | 35.3 | 24.4 | 26.1 | 28.7 | 
O=C(N/N=C/c1ccc([N+](=O)[O-])cc1)Nc1cc2c(Nc3ccc(F)c(Cl)c3)ncnc2cc1O[C@H]1CCOC1 | 31.2 | 33.5 | 35.3 |  | IC50 (MCF7 [3]; mcf7): Not Active
O=C(N/N=C/c1cc(Br)c(O)c(Br)c1)Nc1cc2c(Nc3ccc(F)c(Cl)c3)ncnc2cc1O[C@H]1CCOC1 | 8.91 | 6.16 | 2.74 | 5.91 | 
COc1cc2ncnc(Nc3ccc(F)c(Cl)c3)c2cc1NC(=O)N/N=C/c1ccc(OC)c(OC)c1OC | 32.8 | 29.3 | 31.2 |  | IC50 (MCF7 [3]; mcf7): Not Active
COc1ccc(/C=N/NC(=O)Nc2cc3c(Nc4ccc(F)c(Cl)c4)ncnc3cc2O[C@H]2CCOC2)c(OC)c1OC | 25.2 | 25.6 | 29.3 | 33.8 | 
COc1cc2ncnc(Nc3ccc(F)c(Cl)c3)c2cc1NC(=O)N/N=C/c1cc(C(C)(C)C)c(O)c(C(C)(C)C)c1 | 37.1 | 28.7 | 26.8 | 28.3 | 
COc1cc2ncnc(Nc3ccc(F)c(Cl)c3)c2cc1NC(=O)N/N=C/c1cc(OC)c(OC)c(OC)c1 | 32.1 | 36.5 | 30.1 | 30.7 | 
O=C(N/N=C/c1ccc(F)cc1)Nc1cc2c(Nc3ccc(F)c(Cl)c3)ncnc2cc1O[C@H]1CCOC1 | 35.1 |  |  | 28.2 | IC50 (PC-3; pc-3): Not Active; IC50 (HepG2 [2]; hepg2): Not Active
COc1cc2ncnc(Nc3ccc(F)c(Cl)c3)c2cc1NC(=O)N/N=C/c1ccc(O)c(Br)c1 | 28.6 | 15.3 | 23.8 |  | IC50 (MCF7 [3]; mcf7): Not Active

SMILES | IC50 (A549 [1]) [µM] | IC50 (PC-3; [16]) [µM] | IC50 (HepG2 [2]; [17]) [µM] | IC50 (MCF7 [3]; [18]) [µM] | other results
O=C(N/N=C/c1ccc(O)c(Br)c1)Nc1cc2c(Nc3ccc(F)c(Cl)c3)ncnc2cc1O[C@H]1CCOC1 | 4.31 | 5.23 | 0.66 | 2.69 | 
COc1cc2ncnc(Nc3ccc(F)c(Cl)c3)c2cc1NC(=O)N/N=C/c1cccc(Br)c1 | 28.1 |  |  | 27.1 | IC50 (PC-3; pc-3): Not Active; IC50 (HepG2 [2]; hepg2): Not Active
COc1cc2ncnc(Nc3ccc(F)c(Cl)c3)c2cc1NC(=O)N/N=C/c1ccc(C#N)cc1 | 32.2 | 36.5 | 34.1 |  | 
COc1cc2ncnc(Nc3ccc(F)c(Cl)c3)c2cc1NC(=O)N/N=C/c1cc(Br)c(O)c(Br)c1 | 34.6 | 41.5 | 36.8 | 30.2 | 
COc1cc2ncnc(Nc3ccc(F)c(Cl)c3)c2cc1NC(=O)N/N=C/c1ccc(F)cc1 | 26.6 | 36.5 | 31.1 | 35.1 | 
COc1cc2ncnc(Nc3ccc(F)c(Cl)c3)c2cc1NC(=O)N/N=C/c1ccc(F)cc1Cl | 28.2 | 25.7 | 29.2 |  | IC50 (MCF7 [3]; mcf7): Not Active
COc1cc(/C=N/NC(=O)Nc2cc3c(Nc4ccc(F)c(Cl)c4)ncnc3cc2O[C@H]2CCOC2)cc(OC)c1OC | 26.4 | 29.6 | 31.2 | 26.5 | 
CN(C)C/C=C/C(=O)Nc1cc2c(Nc3ccc(F)c(Cl)c3)ncnc2cc1O[C@H]1CCOC1 [AFATINIB] | 1.4 | 3.96 |  |  | 
O=C(N/N=C/c1cccc(Cl)c1Cl)Nc1cc2c(Nc3ccc(F)c(Cl)c3)ncnc2cc1O[C@H]1CCOC1 | 25 | 27.4 | 16.9 |  | IC50 (MCF7 [3]; mcf7): Not Active
N#Cc1ccc(/C=N/NC(=O)Nc2cc3c(Nc4ccc(F)c(Cl)c4)ncnc3cc2O[C@H]2CCOC2)cc1 | 29.1 | 28.1 | 26.4 |  | 
O=C(N/N=C/c1cccc(Br)c1)Nc1cc2c(Nc3ccc(F)c(Cl)c3)ncnc2cc1O[C@H]1CCOC1 | 10.7 | 15.5 | 32.3 | 12.4 | 
O=C(N/N=C/c1ccc(F)cc1Cl)Nc1cc2c(Nc3ccc(F)c(Cl)c3)ncnc2cc1O[C@H]1CCOC1 | 27.2 | 28.4 | 26.1 | 32.2 | 
COc1cc2ncnc(Nc3ccc(F)c(Cl)c3)c2cc1NC(=O)N/N=C/c1ccc([N+](=O)[O-])cc1 | 35.1 | 32.4 | 34.1 | 36.8 | 
COc1cc2ncnc(Nc3ccc(F)c(Cl)c3)c2cc1NC(=O)N/N=C/c1ccc(O)cc1 | 7.61 | 16.6 | 26.3 | 28.6 | 
COc1ccc(/C=N/NC(=O)Nc2cc3c(Nc4ccc(F)c(Cl)c4)ncnc3cc2O[C@H]2CCOC2)cc1 | 33.1 | 34.1 | 28.8 | 27.3 | 
